Measurements from patent US7868026B2, “Therapeutic compounds” (Pfizer Inc., priority 2005, dated 2011).
Read-outs that look alike come from different tables or passages of the source.

Tests used:
Assay type in all cases: biochemical
[1] = molecular target: T1, CYP3A4 (Homo sapiens, UniProt P08684); experiment: Determination of IC50 against CYP3A4 by measurement of inhibition of testosterone metabolism (human liver microsomes, 6-β-OH-testosterone by LC-MS/MS); set-up: 0.1 mg/mL human liver microsomes; settings: read-out: IC50 (Testo.)
T1 sequence (P08684 whole entry): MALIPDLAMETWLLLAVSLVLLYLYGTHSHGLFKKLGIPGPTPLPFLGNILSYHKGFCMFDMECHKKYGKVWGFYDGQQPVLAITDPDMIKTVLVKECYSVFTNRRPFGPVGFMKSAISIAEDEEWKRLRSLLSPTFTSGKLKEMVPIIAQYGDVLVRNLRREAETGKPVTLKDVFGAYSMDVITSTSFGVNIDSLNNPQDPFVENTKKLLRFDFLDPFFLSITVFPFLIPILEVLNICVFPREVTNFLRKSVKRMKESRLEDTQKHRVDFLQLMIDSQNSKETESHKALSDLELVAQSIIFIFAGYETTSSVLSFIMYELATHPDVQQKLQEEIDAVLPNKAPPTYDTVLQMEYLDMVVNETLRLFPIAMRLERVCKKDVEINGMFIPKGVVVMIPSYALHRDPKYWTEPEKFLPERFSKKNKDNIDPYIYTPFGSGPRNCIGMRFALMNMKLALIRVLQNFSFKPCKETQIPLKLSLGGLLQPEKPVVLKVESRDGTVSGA
In short: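 Human liver microsomes (0.1 mg/mL) incubated with 25 μM testosterone and 1 mM NADPH in 100 mM potassium phosphate, pH 7.4, for eight minutes. 6-β-OH-testosterone measured by LC-MS/MS in MRM mode against an internal standard and quantified from a metabolite standard curve.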

[2] = molecular target: T1, CYP3A4; experiment: Determination of IC50 against CYP3A4 by measurement of inhibition of midazolam metabolism (human liver microsomes, 1-hydroxymidazolam by LC-MS/MS); set-up: 0.1 mg/mL human liver microsomes; settings: 2 μM midazolam, 0.1 mg/mL human liver microsomes
In short: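 Human liver microsomes (0.1 mg/mL) incubated 8 min with 2 μM midazolam and 1 mM NADPH in 100 mM potassium phosphate, pH 7.4. 1-Hydroxymidazolam quantified by LC-MS/MS (MRM) as peak area ratio to internal standard against a metabolite standard curve.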

[3] = molecular target: T1, CYP3A4; experiment: Determination of compound Kiapp against recombinant CYP3A4 enzyme (BFC fluorescent substrate)
In short: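 Recombinant CYP3A4 (5.5 or 8 nM, with or without b5 depending on source) pre-incubated with inhibitor ≥30 min at room temperature in 100 mM sodium phosphate pH 7.0, 5 mM TCEP, 2% DMF. Reaction started with 200 uM NADPH and 5 uM BFC; initial fluorescence rates over 5 min fitted to Morrison tight-binding (non-partial) or Szedlacsek (partial) equations for Kiapp.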

[4] = Baculo. enzyme preparation, read-out: Kiapp (BFC, Baculo.)
[5] = Super. enzyme preparation, read-out: Kiapp (BFC, Super.)

Structure (SMILES): COc1cncc(NS(=O)(=O)c2ccccc2C(=O)NCc2ccc(Cl)cc2C)c1 [Example 216]
- IC50 [1]: 7 nM
- IC50 [2]: 5 nM
- Ki [3, 4]: 6.9 nM
- Ki [3, 5]: 3.5 nM

Structure (SMILES): O=C(c1ccccc1S(=O)(=O)Nc1cccnc1)N1CCOCC1 [Example 21, 2-(morpholin-4-ylcarbonyl)-N-pyridin-3-ylbenzenesulfonamide]
- IC50 [1]: > 750 nM
- IC50 [2]: > 750 nM
- Ki [3, 4]: > 1000 nM

Structure (SMILES): COc1cncc(NS(=O)(=O)c2ccccc2C(=O)N(C)C(C)C)c1 [Example 282, N-isopropyl-2-{[(5-methoxypyridin-3-yl)amino]sulfonyl}-N-methylbenzamide]
- IC50 [1]: 62 nM
- IC50 [2]: 49 nM
- Ki [3, 4]: 330 nM
- Ki [3, 5]: 57.7 nM

Structure (SMILES): COc1cncc(NS(=O)(=O)c2ccccc2C(=O)NCCc2ccncc2)c1 [Example 383, 2-{[(5-methoxypyridin-3-yl)amino]sulfonyl}-N-(2-pyridin-4-ylethyl)benzamide]
- IC50 [1]: 348 nM
- IC50 [2]: 67 nM
- Ki [3, 4]: 912 nM
- Ki [3, 5]: 31 nM

Structure (SMILES): COc1cncc(NS(=O)(=O)c2ccccc2C(=O)NC2CCC(C)CC2)c1 (stereo not shown) [Example 149, 2-{[(5-methoxypyridin-3-yl)amino]sulfonyl}-N-(4-methylcyclohexyl)benzamide]
- IC50 [1]: 21 nM
- IC50 [2]: 12 nM
- Ki [3, 4]: 208 nM
- Ki [3, 5]: 12.3 nM

Structure (SMILES): Cc1ccncc1NS(=O)(=O)c1ccccc1C(=O)N(C)Cc1ccc(C(F)(F)F)cc1 [Example 165, N-methyl-2-{[(4-methylpyridin-3-yl)amino]sulfonyl}-N-[4-(trifluoromethyl)benzyl]benzamide]
- IC50 [1]: 54 nM
- IC50 [2]: 43 nM
- Ki [3, 4]: 163 nM
- Ki [3, 5]: 29.6 nM

Structure (SMILES): COc1ccccc1CNC(=O)c1ccccc1S(=O)(=O)Nc1cccnc1 [Example 90, N-(2-methoxybenzyl)-2-[(pyridin-3-ylamino)sulfonyl]benzamide]
- IC50 [1]: 36 nM
- IC50 [2]: 10 nM
- Ki [3, 4]: 313 nM
- Ki [3, 5]: 25.2 nM

Structure (SMILES): COc1cncc(NS(=O)(=O)c2ccccc2C(=O)NCC2CCCCC2)c1 [Example 200, N-(cyclohexylmethyl)-2-{[(5-methoxypyridin-3-yl)amino]sulfonyl}benzamide]
- IC50 [1]: 21 nM
- IC50 [2]: 12 nM
- Ki [3, 4]: 36.1 nM
- Ki [3, 5]: 9.9 nM

Structure (SMILES): COc1cncc(NS(=O)(=O)c2ccccc2C(=O)N2CCCC(C)(C)C2)c1 [Example 391, 2-[(3,3-dimethylpiperidin-1-yl)carbonyl]-N-(5-methoxypyridin-3-yl)benzenesulfonamide]
- IC50 [1]: 63 nM
- IC50 [2]: 27 nM
- Ki [3, 4]: 317 nM
- Ki [3, 5]: 6.26 nM

Structure (SMILES): CCOc1ccncc1NS(=O)(=O)c1ccccc1C(=O)NC(C)(C)C [Example 249, N-(tert-butyl)-2-{[(4-ethoxy-pyridin-3-yl)amino]sulfonyl} benzamide]
- IC50 [1]: 45 nM
- IC50 [2]: 28.5 nM
- Ki [3, 4]: 60.1 nM
- Ki [3, 5]: 37.7 nM

Structure (SMILES): COc1cncc(NS(=O)(=O)c2ccccc2C(=O)N2CCCCC2)c1 [Example 16, N-(5-methoxypyridin-3-yl)-2-(piperidin-1-ylcarbonyl)benzenesulfonamide]
- IC50 [1]: 117 nM
- IC50 [2]: 65 nM
- Ki [3, 4]: 433 nM

Structure (SMILES): CCCCNC(=O)c1ccccc1S(=O)(=O)Nc1cnccc1C [Example 260, N-butyl-2-{[(4-methylpyridin-3-yl)amino]sulfonyl}benzamide]
- IC50 [1]: 65 nM
- IC50 [2]: 47 nM
- Ki [3, 4]: 485 nM
- Ki [3, 5]: 71.5 nM

Structure (SMILES): COc1ccncc1NS(=O)(=O)c1ccccc1C(=O)NCCOc1ccccc1 [Example 224, 2-{[(4-methoxypyridin-3-yl)amino]sulfonyl}-N-(2-phenoxyethyl)benzamide]
- IC50 [1]: 56 nM
- IC50 [2]: 29 nM
- Ki [3, 4]: 399 nM
- Ki [3, 5]: 56.8 nM

Structure (SMILES): CCCCNC(=O)c1ccccc1S(=O)(=O)Nc1cncc(OC)c1 [Example 17, N-butyl-2-{[(5-methoxypyridin-3-yl)amino]sulfonyl}benzamide]
- IC50 [1]: 62 nM
- IC50 [2]: 26 nM
- Ki [3, 4]: 133 nM

Structure (SMILES): COc1cncc(NS(=O)(=O)c2ccc(OCCCN(C)C)cc2C(=O)N(C)C(C)C)c1 [Example 248, 5-[3-(dimethylamino)propoxy]-N-isopropyl-2-{[(5-methoxypyridin-3-yl)amino]sulfonyl}-N-methylbenzamide]
- IC50 [1]: 235 nM
- IC50 [2]: 108 nM
- Ki [3, 4]: 439 nM
- Ki [3, 5]: 193 nM

Structure (SMILES): COc1cncc(NS(=O)(=O)c2ccccc2C(=O)NCc2ccc(F)c(C(F)(F)F)c2)c1 [Example 312, N-[4-fluoro-3-(trifluoromethyl)benzyl]-2-{[(5-methoxypyridin-3-yl)amino]sulfonyl}benzamide]
- IC50 [1]: 12 nM
- IC50 [2]: 13 nM
- Ki [3, 4]: 8.6 nM
- Ki [3, 5]: 3.5 nM

Structure (SMILES): CCCCCN(C)C(=O)c1ccccc1S(=O)(=O)Nc1cncc(OC)c1 [Example 339, 2-{[(5-methoxypyridin-3-yl)amino]sulfonyl}-N-methyl-N-pentylbenzamide]
- IC50 [1]: 26 nM
- IC50 [2]: 14 nM
- Ki [3, 4]: 35.4 nM
- Ki [3, 5]: 6.1 nM

Structure (SMILES): COCCCNC(=O)c1ccccc1S(=O)(=O)Nc1cncc(OC)c1 [Example 236, N-(3-methoxypropyl)-2-{[(5-methoxypyridin-3-yl)amino]sulfonyl}benzamide]
- IC50 [1]: 223 nM
- IC50 [2]: 132 nM
- Ki [3, 4]: > 1000 nM
- Ki [3, 5]: 142 nM

Structure (SMILES): COc1cncc(NS(=O)(=O)c2ccccc2C(=O)N(C)CCc2ccccc2)c1 [Example 370, 2-{[(5-methoxypyridin-3-yl)amino]sulfonyl}-N-methyl-N-(2-phenylethyl)benzamide]
- IC50 [1]: 8 nM
- IC50 [2]: 12 nM
- Ki [3, 4]: 52.9 nM
- Ki [3, 5]: 19 nM

Structure (SMILES): COc1cncc(NS(=O)(=O)c2ccccc2C(=O)NC2CC3CCC2C3)c1 (stereo not shown) [Example 215, N-bicyclo[2.2.1]hept-2-yl-2-{[(5-methoxypyridin-3-yl)amino]sulfonyl}benzamide]
- IC50 [1]: 58 nM
- IC50 [2]: 25 nM
- Ki [3, 4]: 216 nM
- Ki [3, 5]: 43.3 nM

Structure (SMILES): CN(c1cccnc1)S(=O)(=O)c1ccccc1C(=O)N1CCCC1 [Example 328, N-methyl-N-pyridin-3-yl-2-(pyrrolidin-1-ylcarbonyl)benzenesulfonamide]
- IC50 [1]: > 750 nM
- IC50 [2]: > 750 nM
- Ki [3, 4]: > 1000 nM
- Ki [3, 5]: 484 nM

Structure (SMILES): CC1CC(C)CN(C(=O)c2ccccc2S(=O)(=O)Nc2cccnc2)C1 (stereo not shown) [Example 25, 2-[(3,5-dimethylpiperidin-1-yl)carbonyl]-N-pyridin-3-ylbenzenesulfonamide]
- IC50 [1]: 77 nM
- IC50 [2]: 45 nM
- Ki [3, 4]: 239 nM

Structure (SMILES): O=C(c1ccccc1S(=O)(=O)Nc1cccnc1)N1CCN(c2ccccn2)CC1 [Example 62, N-pyridin-3-yl-2-[(4-pyridin-2-ylpiperazin-1-yl)carbonyl]benzenesulfonamide]
- IC50 [1]: 211 nM
- IC50 [2]: 184 nM
- Ki [3, 4]: > 1000 nM
- Ki [3, 5]: 83.3 nM
